In patent US10479805B2, “Beta-lactamase inhibitor” (priority 2016, dated 2019):
≈ marks a conversion by molar mass, not a printed value.

Assays:
Assay in all cases: Broth microdilution MIC, cephalosporin alone
Type in all cases: cell-based
[1] = system: Klebsiella pneumoniae expressing carbapenem class A KPC2; conditions: antibiotic alone, K. pneumoniae KPC2, CAMHB
Source text: (§1) To determine that ability of the test compound to inhibit the growth of beta-lactamase-producing bacterial strain, traditional cell-based screening experiments were employed. Six bacterial strains producing beta-lactamases were used: Escherichia coli expressing class an extended spectrum beta-lactamases (esbl) ctxm15 and shv5 (E. coli), Klebsiella pneumoniae expressing class a carbapenem enzyme kpc2, Pseudomonas aeruginosa expressing class B VIM-2, Enterobacter cloacae expressing class C P99+, and Acinetobacter baumannii expressing class D OXA-23 were studied. […] This experiment was performed in Cation Adjusted Mueller Hinton Broth (CAMHB, BD #212322, BD Diagnostic Systems, Sparks, Md.). The bacterial strains were grown in CAMBH broth for […]. All six strains were grown in the presence of 50 μg/mL ampicillin to ensure that resistance was maintained. At the same time, the test compound was diluted into 0.1 mg/mL stock solution in DMSO. The compound was added to the microplate and diluted in a 2-fold series in CAMHB to a final concentration of 32 to 0.25 μg/mL. A cover layer containing cephalosporin CAMHB was added to the compound at a termination concentration of 8 μg/mL or […]. […] The MIC reading of the dose escalation test of the test compound indicates the concentration of the analyte sufficient to inhibit beta-lactamase activity and protect the original antibacterial activity of cephalosporins. Six plates are required for each compound and each plate is used for one bacterial strain. In addition to the dose escalation test of the test compound, the MIC of a group of cephalosporins was tested to ensure that the strain remained consistent in behavior between the test and the test. Once the test compound and cephalosporin are added, the plates may be inoculated. The inoculation was carried out according to the CLSI broth microdilution method.

[2] = system: Escherichia coli expressing class A ESBL SHV5; conditions: read-out: MIC alone
Source text: as §1

[3] = system: Enterobacter cloacae expressing class C P99+AmpC
Source text: as §1

[4] = system: Acinetobacter baumannii expressing class D enzyme OXA-23
Source text: as §1

[5] = system: Pseudomonas aeruginosa expressing class B enzyme VIM-2
Source text: as §1

[6] = system: E. coli expressing class A ESBLCTXM15; conditions: Escherichia coli
Source text: as §1

Structure (SMILES)	MIC [1] [µg/mL]	MIC [2] [µg/mL]	MIC [3] [µg/mL]	MIC [4] [µg/mL]	MIC [5] [µg/mL]	MIC [6] [µg/mL]
CC(C)(O/N=C(\C(=O)N[C@@H]1C(=O)N2C(C(=O)[O-])=C(C[n+]3ccccc3)CS[C@H]12)c1csc(N)n1)C(=O)O [Ceftazidime]	32 (≈ 58.5 µM)	> 1020	256 (≈ 468 µM)	> 256	> 256	–
CO/N=C(\C(=O)N[C@@H]1C(=O)N2C(C(=O)O)=C(COC(C)=O)CS[C@H]12)c1csc(N)n1 [cefotaxime]	–	–	–	–	–	1020 (≈ 2250 µM)
